This is an account of results in patent US11510911B2 (AJOU UNIVERSITY INDUSTRY—ACADEMIC COOPERATION FOUNDATION, priority 2017, dated 2022).

The test system of one assay is HepG2 cells. Briefly: Cell viability (WST-1 assay), HepG2 cells. Particulars: Homo sapiens. Type of assay: cell-based. The method, then: (§1) Human liver cancer cells of Hep3B, Huh7, HepG2 and PLC/PRF5 were cultured in DMEM supplemented with 10% FBS, 100 U/ml penicillin and 100 μg/ml streptomycin.
(§2) A lentiviral construct expressing STAT1 shRNA, p65 shRNA and LCN2 shRNA was purchased from Sigma-Aldrich. Wild-type SULF2, SULF2-N491K, wild-type ERC1, ERC1-H721Q, wild-type NTRK3, NTRK3-N522K, wild-type SHC1 and SHC1-SHC1-P55 cDNA constructs were cloned into MCS-EF1-Puro (System Biosciences, Mountain), the lentiviral vectors for cDNA expression. All lentiviral vectors were transfected into 293 TN cells (System Biosciences) using the Lipofectamine 3000 transfection reagent (Invitrogen, Waltham, Mass., USA). Two days after lentiviral plasmid transfection, particles were collected and used to infect HCC cells. The HDD cells infected with lentivirus were selected using puromycin for 1 week.
(§3) For cell proliferation analysis, 5×10^3 cells were divided into 96-well plates and cultured in DMEM containing various concentrations of anti-cancer drugs and 5% FBS for 48 hours. Cell viability was measured through WST-1 assay (Roche, Gangnam-gu, Seoul, Korea) and four repetitions of each experiment were performed at least 3 times. Cell migration analysis was performed in a 24-well Boyden chamber (8 μm pore size; Coastal; Corning Life Sciences, Lowell, Mass.), 1×10^5 cells were suspended in serum-free 0.2 ml DMEM and added to the upper chamber inlet, and the lower chamber was filled with 0.6 ml DMEM/10% fetal bovine serum. After 6 hours, the cells on the bottom of the membrane were fixed, stained and counted at ×200 magnification with four microscopes.

The next assay concerns Huh7 cells. Briefly: Cell viability (WST-1 assay), Huh7 cells. The class given is cell-based, Human. On the procedure:
as §1, §2, §3

A further assay concerns LCN2 mRNA. As to the kind of experiment: LCN2 mRNA expression by qRT-PCR in Hep3B vector, SULF2-WT and SULF2-N491K cells. Type of assay: cell-based, Human. On the procedure:
(§4) Each cell was collected using an RNeasy kit (Qiagen, Venlo, Netherlands) and total RNA was isolated. The mRNA was reverse-transcribed into cDNA using a PrimeScript RT kit (Takara, Shiga, Japan), and then PCR was conducted using the CFX96 Real-Time PCR Detection System (Bio-Rad Laboratories, Hercules, Calif., USA) equipped with SsoAdvanced Universal Supermixes (Bio-Rad). The analysis of each sample was run at least three times for each experiment, and the data for the number was reported in a relative quantity: Mean value (standard deviation) of 2^−ΔΔCT±S.D.

Assay [1] concerns Hep3B cells. Briefly: Cell viability / proliferation (WST-1 assay), Hep3B cells expressing vector, SULF2-WT or SULF2-N491K. Type of assay: cell-based, Human. Particulars: for cell proliferation: 0.01-10 μM. On the procedure:
as §1, §2
Then, in order to identify whether or not the SULF2 mutation changed drug susceptibility, an overexpression system for wild-type SULF2 and SULF2-N491K mutants in Hep3B cells that rarely expressed endogenous SULF2 was established (Lai J P et al., Hepatology 47: 1211-22, 2008).
as §3

For assay [2], the system named is Hep3B cells. As to the kind of experiment: Transwell (Boyden chamber) cell migration assay, Hep3B cells. Type of assay: cell-based, Human. The method, then: as §3
The next assay relates to amphiregulin mRNA. Briefly: Amphiregulin mRNA level by qRT-PCR in Hep3B vector, SULF2-WT and SULF2-N491K cells. The conditions noted are these: 2 μM sorafenib, 72 hours. The class given is cell-based, Human. On the procedure: as §4
Another assay deals with SULF2 mRNA. Briefly: SULF2 mRNA expression by qRT-PCR in HepG2 and Huh7 cells. Type of assay: cell-based, Human. The conditions noted are these: sorafenib up to 10 μM for 1, 2, 4 and 12 weeks. The method, then:
as §4

The subject of assay [3] is Hep3B-SR, SULF2-WT-SR, HepG2-SR and Huh7-SR cells. As to the kind of experiment: Cell viability of sorafenib-resistant (SR) liver cancer cells. The class given is cell-based, Human. Particulars: LCN2 siRNA 24 hours, then 5 μM sorafenib 48 hours. The method, then: as §3
After culture for several months, the sorafenib-resistant (SR) cell lines, Vector-SR, SULF2-WT-SR and SULF2-N491K-SR were obtained.
Thus, control siRNA and siRNA for human LCN2 were purchased from Santa Cruz Biotechnology, and each cell was transfected with siRNA using a transfection reagent (Santa Cruz) according to the manufacturer's instructions.

For the next assay, the system named is EGFR. As to the kind of experiment: Western blotting of EGFR downstream signaling after amphiregulin treatment. Type of assay: cell-based, Human. The conditions noted are these: SULF2-WT cells, amphiregulin 50 ng/ml. On the procedure:
In order to prepare total cell lysate, cells were lysed in a high-salt-content lysis buffer (20 mM Tris-HCl [pH 8.0], 1% Triton X-100, 2 mM EDTA and 1 mM phenylmethylsulfonyl fluoride), incubated on ice for 20 minutes, and centrifuged for 20 minutes to remove cell debris. A total of 20 μg of total cell lysate was used for SDS-polyacrylamide gel electrophoresis, and proteins were transferred to a nitrocellulose membrane and incubated overnight with each antibody at 4° C. The membrane was then incubated at room temperature for 1 hour with a peroxidase-conjugated secondary antibody (PIERCE, Rockford, Ill., USA), and signals were detected using a chemiluminescence detection kit (PIERCE).
Thus, in order to elucidate the mechanism by which sorafenib-mediated EGFR activation is differentially regulated between SULF2-WT and SULF2-N491K, the effect of exogenous stimulation of EGFR by treatment with recombinant human amphiregulin (rhAR) on three types of cells was compared.

For `Nc1ncnc2c1c(-c1cccc(OCc3ccccc3)c1)cn2[C@H]1C[C@@H](CN2CCC2)C1` [AEW541], the IC50 stood at 2.63 µM in the assay on HepG2 cells (HepG2, HepG2 cells expressing ERC1-H721Q) and 4.25 µM with HepG2 cells (HepG2, HepG2 cells expressing ERC1-WT).

In the case of `CN[C@@H](C)C(=O)N[C@H](C(=O)N1CC[C@H]2CCN(CCc3ccccc3)C[C@H]21)C1CCCCC1` [LBW242], the IC50 in the assay on Huh7 cells (Huh7 cells expressing SHC1-P5S) is 2.26 µM; in the assay with Huh7 cells (Huh7 cells expressing SHC1-WT) it was 4.26 µM.

For the molecule `N#CC(=C(/N)Sc1ccccc1N)/C(C#N)=C(/N)Sc1ccccc1N` [MEK inhibitor], in the assay on LCN2 mRNA (vector or SULF2-N491K cells, U0126 10 μM, 48 hours), the LCN2 expression entry is “did not inhibit”.

As for `CCN(CC)CCCCNc1ncc2cc(-c3cc(OC)cc(OC)c3)c(NC(=O)NC(C)(C)C)nc2n1` [PD173074], the cell proliferation entry is on record as “did not inhibit” in the assay on Hep3B cells [1] (SULF2-WT cells, 48 hours); “inhibited cell proliferation” with Hep3B cells [1] (vector and SULF2-N491K cells, 48 hours). For the same molecule, the cell migration result in the assay with Hep3B cells [2] (vector, SULF2-WT or SULF2-N491K cells treated with PD173074) is listed as “inhibition of great migration was not found”.

Consider `CNC(=O)c1cc(Oc2ccc(NC(=O)Nc3ccc(Cl)c(C(F)(F)F)c3)cc2)ccn1` [Sorafenib], for which the half-inhibitory concentration (IC50) with Huh7 cells (Homo sapiens, Huh-7, 48 h, Huh7 cells, NT shRNA, 48 hours) came to 10.2 µM; with Huh7 cells (Homo sapiens, Huh-7, 48 h, Huh7 cells, SULF2 knockdown (SULF2 shRNA), 48 hours) it was 6.17 µM; with Huh7 cells (Homo sapiens, Huh-7, Huh7 cells expressing NTRK3-N522K) it was 5.8 µM; with Huh7 cells (Homo sapiens, Huh-7, Huh7 cells expressing NTRK3-WT), 7.64 µM; in the assay with Huh7 cells (Homo sapiens, Huh-7, Huh7 cells, sorafenib in combination with 200 μM OKN-007), 5.06 µM; with HepG2 cells (HepG2, HepG2 cells, NT shRNA), 4.97 µM. Besides, the IC50 with HepG2 cells (HepG2, HepG2 cells, SULF2 knockdown (SULF2 shRNA)) came out at 2.38 µM; in the assay on HepG2 cells (HepG2, HepG2 cells, sorafenib in combination with OKN-007), 1.76 µM; in the assay on Hep3B cells [1] (Hep3B-SULF2-WT cells), 7.51 µM; in the assay on Hep3B cells [1] (Homo sapiens, Hep3B, 48 h, Hep3B cells expressing wild-type SULF2, sorafenib in combination with OKN-007, 48 hours) it was 3.17 µM; in the assay on Hep3B cells [1] (Homo sapiens, Hep3B, 48 h, SULF2-WT cells with knockdown of LCN2 by shRNA), 3.95 µM; with Hep3B cells [1] (Homo sapiens, Hep3B, Hep3B cells expressing SULF2-N491K), 3.54 µM. Moreover, the IC50 came to 7.51 µM with Hep3B cells [1] (Homo sapiens, Hep3B, Hep3B-SULF2-WT cells) and 3.37 µM in the assay on Hep3B cells [1] (Homo sapiens, Hep3B, Hep3B-vector cells). Besides, in the assay on Hep3B cells [1] (Hep3B vector and SULF2-N491K cells, 48 hours), the “susceptibility to sorafenib with OKN-007 treatment” value is recorded as “did not change”. The “LCN2 mRNA expression” value with LCN2 mRNA (SULF2-WT cells, 2 μM sorafenib, 72 hours) is “significantly induced”; with LCN2 mRNA (vector and SULF2-N491K cells, 2 μM sorafenib, 72 hours), “induced only a small amount”. For the same molecule, the amphiregulin expression entry with amphiregulin mRNA is “significantly increased”. The “SULF2 mRNA expression” value in the assay with SULF2 mRNA is “significantly increased in a time-dependent manner”. In [3], the “sorafenib susceptibility after LCN2 knockdown” value is listed as “restoration of sorafenib susceptibility”.

For `COc1cc2ncnc(Nc3ccc(F)c(Cl)c3)c2cc1OCCCN1CCOCC1` [gefitinib], the cell growth entry with Hep3B cells [1] (SULF2-WT cells compared with vector and SULF2-N491K cells, 48 hours) is reported as “significantly inhibited”. Besides, the “LCN2 mRNA expression” value in the assay on LCN2 mRNA (SULF2-WT cells, 48 hours, OKN-007 200 μM, gefitinib 5 μM) was “significantly inhibited”. Moreover, the cell migration entry in the assay with Hep3B cells [2] (SULF2-WT cells compared with vector and SULF2-N491K cells) is given as “significantly inhibited”.

B1: amphiregulin: recombinant human amphiregulin, the EGFR ligand, from R & D systems (protein, UniProt P15514 101-187, looked up)
Amphiregulin: SVRVEQVVKPPQNKTESENTSDKPKRKKKGGKNGKNRRNRKKKNPCNAEFQNFCIHGECKYIEHLEAVTCKCQQEYFGERCGEKSMK
Turning to B1, in the assay with EGFR, the “activation of EGFR and downstream signaling pathways including STAT1 and ERK” value is on record as “elevated activation”; the “p65 and LCN2 protein levels” value is “significantly increased”.
